Data as given in patent US20220306617A1, “SUBSTITUTED 1,3-PHENYL HETEROARYL DERIVATIVES AND THEIR USE IN THE TREATMENT OF DISEASE” (NOVARTIS AG, priority 2019, published 2022).
Structures can show the parent of a compound that is named as a salt.

Molecular target: T1, abc isoform of human TMEM16A channel expressed in CHO cells (Homo sapiens, UniProt Q5XXA6, DEL476-501)
T1 construct: expressed in transfected cells; host or cells: CHO cells, doxycycline-inducible expression under Blasticidin/Zeocin selection
T1 sequence (Q5XXA6 with tags, fused parts or gaps isoform Q5XXA6-5 DEL539-564): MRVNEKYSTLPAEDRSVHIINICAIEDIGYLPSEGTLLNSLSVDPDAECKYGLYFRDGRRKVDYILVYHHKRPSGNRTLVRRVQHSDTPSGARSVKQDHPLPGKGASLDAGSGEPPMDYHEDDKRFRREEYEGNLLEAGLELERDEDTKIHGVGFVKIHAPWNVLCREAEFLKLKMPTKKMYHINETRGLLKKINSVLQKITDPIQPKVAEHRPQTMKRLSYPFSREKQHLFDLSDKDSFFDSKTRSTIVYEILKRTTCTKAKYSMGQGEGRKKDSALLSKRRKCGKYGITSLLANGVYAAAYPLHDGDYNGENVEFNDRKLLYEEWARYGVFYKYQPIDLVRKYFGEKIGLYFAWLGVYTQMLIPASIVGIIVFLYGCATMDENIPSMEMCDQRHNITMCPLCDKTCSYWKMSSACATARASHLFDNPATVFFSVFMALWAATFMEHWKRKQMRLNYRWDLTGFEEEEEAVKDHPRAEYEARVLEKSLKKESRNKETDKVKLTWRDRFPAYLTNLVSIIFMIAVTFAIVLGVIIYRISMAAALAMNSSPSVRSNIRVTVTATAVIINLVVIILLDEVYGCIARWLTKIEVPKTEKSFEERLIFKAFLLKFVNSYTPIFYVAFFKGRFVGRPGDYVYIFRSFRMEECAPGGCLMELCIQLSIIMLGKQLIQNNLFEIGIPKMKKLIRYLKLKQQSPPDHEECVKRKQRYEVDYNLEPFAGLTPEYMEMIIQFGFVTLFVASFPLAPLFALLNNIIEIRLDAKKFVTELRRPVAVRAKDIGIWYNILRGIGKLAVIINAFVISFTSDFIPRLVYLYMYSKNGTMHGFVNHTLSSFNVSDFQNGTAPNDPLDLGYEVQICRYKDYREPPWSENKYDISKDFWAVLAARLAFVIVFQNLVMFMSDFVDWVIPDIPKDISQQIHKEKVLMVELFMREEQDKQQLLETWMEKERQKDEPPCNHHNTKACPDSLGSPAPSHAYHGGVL
Assay: Automated patch clamping (QPatch) assay to measure TMEM16A activity in whole-cell
Type: cell-based
Details: for EC50: CHO cells expressing human TMEM16A (abc), whole-cell automated patch clamp, Hill fit, read-out: TMEM16A QPATCH assay EC50 V3 EC50; for Emax: CHO, read-out: TMEM16A QPATCH assay EC50 V3 Assay Window (% TMEM16A max activation)
Description: Automated Patch Clamping Assay to Measure TMEM16A Activity in Whole-Cell
Chinese hamster ovary cells (CHO) cells expressing abc isoform of human TMEM16A channel (Ref) were grown in vented cell-culture flasks (Corning) containing cell culture medium (1×F-12 Ham, 10% FBS, 1% Penicillin-streptomycin, 5 μg/mL Blasticidin S HCl, 400 μg/mL Zeocin), maintained at 37° C. in an incubator with 5% C02, 95% 02 and 100% humidity. The cells were passaged every 2-3 days at 80-90% confluence by aspirating the cell culture medium, washing twice with 10 mL D-PBS then incubating with 4 mL Trypsin-EDTA for no longer than 5 minutes. Trypsin was neutralized with the addition of 32 mL growth medium to the cell suspension, the cells were counted using a viable-cell counter (Vi-CELL; Beckmann-Coulter) and new flasks were seeded at a cell density of 0.01, 0.02, or 0.05×10^6 cells per cm2 for 3, 2, or 1 day(s) growth, respectively. Cell suspension was diluted in the new 175 cm2 flask with 50 mL of growth medium. Doxycycline was used to induce the expression of TMEM16A channel protein and was added directly to the culture flask 18-24 hours in advance of assay at a final concentration of 1 μg/mL. Induced cells were washed with D-PBS and detached from their culture flasks by adding 10 mL of Detachin and incubating for 10 minutes. Once detached, 5 mL of QPatch assay medium (1×CHO-S-SFM II (Sigma), 25 mM HEPES) was added and the resultant cell suspension counted using the Vi-CELL viable cell counter. The optimal cell density for this QPatch assay is 2-5×1 06 cells/mL; re-adjusted as necessary with QPatch assay medium.
The ion channel activity of TMEM16A (abc) expressed in CHO cells was assed using an automated patch clamp system (Qpatch, Sophion). These systems use planar patch-clamp technology to enable high-resistance, continuous whole-cell recordings from multiple cells in parallel, whilst maintaining each individual cell as an isolated experiment. First, each well was primed with intracellular and extracellular solutions described below. Cells were spun down, washed and then resuspended using extracellular solution. Intracellular solution: 130 mM N-methyl-D-glucamine, 10 mM EGTA, 20 mM CaCl2, 1 mM MgCl2, 10 mM HEPES 10, 10 mM BAPTA, 99 mM Sucrose, 2 mM Mg-ATP, pH 7.3, 320 mOsm Extracellular solution: 130 mM N-methyl-D-glucamine, 10 mM EGTA, 20 mM CaCl2, 1 mM MgCl2, 10 mM HEPES 10, 10 mM BAPTA, 99 mM Sucrose, 2 mM Mg-ATP, pH 7.3, 320 mOsm. Resuspended cells were then added to each well and suction was applied from the intracellular side in order to position a cell on the chip aperture, form a high resistance (GO) seal and achieve a whole-cell recording configuration. Following successful whole cell access, cell membranes were maintained at a voltage of −70 mV until the voltage protocol is applied. From this voltage, membranes were depolarized to +70 mV for 1500 ms, and then hyperpolarized to […] before being depolarized again from −90 to +70 mV in a continuous ramp waveform. At the end of the ramp, the membrane voltage is stepped back to −70 mV until the next waveform was applied. Compounds were dissolved at 10 mM in 100% DMSO and then diluted into extracellular solution (0.3% DMSO final) to the desired final concentration. The assay lower and upper limit were defined as follow, average amplitude (nA) of the last 3 sweeps in the vehicle addition of each cell was considered the basal current (lower limit); the average maximum current response in 3 cells for a reference potentiator at maximal concentration (upper limit). Current values for each compound concentration were then plotted against […]. EC50 curves are fitted to concentration-response data using curve-fitting functions (Hill fit) within the QPatch software. Curve fitting is constrained between the lowest concentration (vehicle-only addition) and the highest current value measured within the concentration range. […]

[1] = maximum current at highest dose relative to reference potentiator at maximal concentration (upper limit) and vehicle (lower limit)

Structure (SMILES) | EC50 [nM] | Emax [1] [%] | TMEM16A QPATCH assay EC50 V3 Assay Window (% TMEM16A max activation) [1] [%]
CCOC(=O)[C@H](CCSC)NC(=O)c1cnc(-c2cccc(-c3cc(C(=O)NC(CC)CC)n[nH]3)c2)o1 [Example 1.14, (S)-Ethyl 4-(Methylthio)-2-(2-(3-(3-(Pentan-3-Ylcarbamoyl)-1H-Pyrazol-5-yl)Phenyl)Oxazole-5-Carboxamido)Butanoate] | 680 | 111 | 
CCC(CC)NC(=O)c1cnc(-c2cccc(-c3cc(C(=O)N[C@H](C(=O)OCc4ccccc4)C(C)C)n[nH]3)c2)o1 [Example 3.3, (S)-Benzyl 3-Methyl-2-(5-(3-(5-(Pentan-3-Ylcarbamoyl)Oxazol-2-Yl)Phenyl)-1 H-Pyrazole-3-Carboxamido)Butanoate] | 180 | 133 | 
CCOC(=O)[C@H](NC(=O)c1cc(-c2cccc(-c3ncc(C(=O)NC(CC)CC)o3)c2)[nH]n1)c1ccccc1 [Example 3.59, (R)-Ethyl 2-(5-(3-(5-(Pentan-3-Ylcarbamoyl)Oxazol-2-Yl)Phenyl)-1H-Pyrazole-3-Carboxamido)-2-Phenylacetate Trifluoroacetate] | 60 | 106 | 
CCC(CC)NC(=O)c1cnc(-c2cccc(-c3cc(C(=O)NC(C)(C)C4CC4)n[nH]3)c2)o1 [Example 3.7, 2-(3-(3-((2-Cyclopropylpropan-2-Yl)Carbamoyl)-1H-Pyrazol-5-Yl)Phenyl)-N-(Pentan-3-Yl)Oxazole-5-Carboxamide] | 20 | 118 | 
CCC(CC)NC(=O)c1cnc(-c2cccc(-c3cc(C(=O)N[C@@H](C)C(=O)OCc4ccccc4)n[nH]3)c2)o1 [Example 3.64, (S)-Benzyl 2-(5-(3-(5-(Pentan-3-Ylcarbamoyl)Oxazol-2-Yl)Phenyl)-1H-Pyrazole-3-Carboxamido)Propanoate Trifluoroacetate] | 150 | 72 | 

Now from value to compound:

EC50 [nM] | Emax [1] [%] | TMEM16A QPATCH assay EC50 V3 Assay Window (% TMEM16A max activation) [1] [%] | Structure (SMILES)
90 | 95 |  | CCC(CC)NC(=O)c1cnc(-c2cccc(-c3cc(C(=O)NC(C)C4CCC4)n[nH]3)c2)o1 (stereo not shown) [Example 3.10, 2-(3-(3-((1-Cyclobutylethyl)Carbamoyl)-1H-Pyrazol-5-Yl)Phenyl)-N-(Pentan-3-Yl)Oxazole-5-Carboxamide]
20 |  | 124 | COC(=O)[C@@H](NC(=O)c1cnc(-c2cccc(-c3cc(C(=O)N[C@@H](C)C4CC4)n(CC(O)C(F)(F)F)n3)c2)o1)C(C)C (single isomer, unassigned) [8.1 (ii)]
32 | 112 |  | CCOC(=O)[C@@H](NC(=O)c1cc(-c2cccc(-c3ncc(C(=O)N[C@H](C(=O)OCC)C(C)C)o3)c2)[nH]n1)C(C)C [Example 2.2, (S)-Ethyl 2-(2-(3-(3-(((S)-1-Ethoxy-3-Methyl-1-Oxobutan-2-Yl)Carbamoyl)-1 H-Pyrazol-5-Yl)Phenyl)Oxazole-5-Carboxamido)-3-Methylbutanoate]
400 | 143 |  | CCC(CC)NC(=O)c1cnc(-c2cccc(-c3cc(C(=O)N[C@@H](C)C4CC4)n(C4COC4)n3)c2)o1 [Example 9.3, (S)-2-(3-(5-((1-Cyclopropylethyl)Carbamoyl)-1-(Oxetan-3-Yl)-1H-Pyrazol-3-Yl)Phenyl)-N-(Pentan-3-Yl)Oxazole-5-Carboxamide]
1000 | 95 |  | CCC(CC)NC(=O)c1cnc(-c2cccc(-c3nc(C(=O)NC(CC)CC)n(CCOCCOCCOC)n3)c2)o1 [Example 15.9, 2-(3-(1-(2-(2-(2-Methoxyethoxy)Ethoxy)Ethyl)-5-(Pentan-3-Ylcarbamoyl)-1H-1,2,4-Triazol-3-Yl)Phenyl)-N-(Pentan-3-Yl)Oxazole-5-Carboxamide]
500 | 96 |  | CCC(CC)NC(=O)c1cnc(-c2cccc(-c3cc(C(=O)NCCOC(C)C)n[nH]3)c2)o1 [Example 3.9, 2-(3-(3-((2-Isopropoxyethyl)Carbamoyl)-1H-Pyrazol-5-Yl)Phenyl)-N-(Pentan-3-Yl)Oxazole-5-Carboxamide]
